What all share (type): cell-based, human
One test has as its system Jurkat cells. The test can be described thus: Toxicity and growth inhibition assays (cell counts on days 3, 5 and 15). How it is done:
For cell culture studies, But4ManNAc (1) (50) was used as a mixture of anomers (α/β=10/90), But4GlcNAc (2) as pure α-anomer and But5Man (3) as pure β-anomer (It is noteworthy that the intracellular hydrolysis of butyrate esters makes the anomeric configuration less relevant in these studies and we found similar cellular effects between the α- and β-anomers in long term toxicity). Stock solutions of the sugar analogs were made in ethanol at concentrations of 10 mM and 50 mM. In the case of cells growing in suspension the solutions of 1-4 (or an ethanol control at an equivalent volume) were coated onto dishes and the ethanol was allowed to evaporate prior to plating. Unless otherwise noted, throughout this study Jurkat cells (Clone E-6, ATCC, Manassas, Va.) were cultured in RPMI 1640 medium supplemented with 300 mg/L glutamine, 5.0% fetal bovine serum (HyClone, Logan, Utah) and 1.0% of a 100× dilution of a pen/strep stock solution containing penicillin (100 units/mL) and streptomycin (100 μg/mL); HL-60 cells (ATCC, Manassas, Va.) were cultured in RPMI 1640 medium supplemented with 10% FBS and pen/strep; and AD293 (HEK) cells (Stratagene, La Jolla, Calif.) were grown in DMEM medium with 10% FBS and pen/strep. In all cases, cells were incubated in a standard 37° C. in a 5.0% CO2, water-saturated environment. Cell counting was performed with a Beckman-Coulter Z2 particle counter and hemacytometer.
Solutions of the analogs in EtOH (10 mM stock) were coated onto 24-well plates at a range of concentrations from 0-320 μM and ethanol was allowed to evaporate. Jurkat cells (1.0×10^5 cells) in 0.5 mL of medium were plated in each well (day 0). On days 3 and 5, fresh medium (1.0 mL) was added to each well. Cell cultures were mixed by gentle pipetting and 100 μL of cell suspension was taken from each well and counted. On days 7, 9, 11, 13 and 15, 1.0 mL of cell suspension was removed from each well after thorough mixing and fresh medium (1.0 mL) was added. Cells were counted on day 15 and the cell density was plotted as a percentage of control (as was done for cell counts from days 3 and 5).

The test system of another test is HeLa cells. The test can be described thus: Morphological changes to HeLa cells. How it is done:
The studies on morphological changes induced by sodium butyrate (5) and But4ManNAc (1) were performed following a reported procedure (45). Briefly, HeLa cells (200,000 cells per well in a 6-well plate) were plated and allowed to form monolayers. After 24 h, the supernatant was aspirated, fresh medium (4.0 mL) was added and treated with either ethanol (20 μL (0.5%), control), 5 (5.0 mM), or 1 (250 μM). For the AD 293 (HEK) cells 2.0×10^6 cells in 10 mL of medium (100 mm tissue culture dishes) were plated and treated, immediately after plating, with either ethanol (50 μL, control), 5 (5.0 mM), or 1 (250 μM). Images were acquired at various time intervals under bright field using a Nikon Eclipse TE200 inverted microscope equipped with a DXM 1200 digital camera.

In the next test the test system is p21WAF1/Cip1 promoter. The test can be described thus: Luc-p21WAF1/Cip1 luciferase reporter gene assay in AD293 (HEK) cells. How it is done:
The plasmid Luc-p21^Cip1/WAF1 (a gift from Vogelstein Laboratory, JHMI, Baltimore, Md.) was amplified and purified utilizing a plasmid maxi kit (Cat. No. 12163. Qiagen, Valencia, Calif.) following the manufacturer's protocol. HEK cells (2.5×10^5) were seeded in 3.0 mL medium and grown in 6-well T. C. plates. Transfection was performed using lipofectamine 2000 (Cat. No. 11668-019, Invitrogen, Carlsbad, Calif.) following the protocol supplier's protocol. Cells were trypsinized 24 h after transfection and seeded at 250,000 cells per well with concentrations of 1-4 shown in FIG. 3a or 1, 5, and ManNAc plus 5 at the concentrations shown in FIG. 3c. After 72 h, the cells were trypsinized, counted and lysed in 300 μL of luciferase cell culture lysis buffer and diluted five-fold in the same buffer. Luminometry was performed utilizing the ‘Luciferase Assay System’ (Cat. No. 1500, 4550, Promega, Madison, Wis.) following supplier's protocol. Luciferase Assay Reagent (100 μL) was added to the cell lysate (20 μL) in luminometer tubes (Cat. No. 55.476, Sarstedt, Newton, N.C.) and the luminescence was measured immediately using a Berthold Sirius Luminometer. The final values were normalized relative to ethanol-treated controls and reported on a per cell basis.
(In general: A reporter such as luciferase makes a cellular process visible.)

A further test has as its system p21WAF1. The test is described as follows: Endogenous p21WAF1 assay (anti-p21WAF1 antibody, flow cytometry) in Jurkat cells. How it is done:
Endogenous expression of p21^WAF1 was detected following a reported procedure (58) with minor modifications. Jurkat cells (5.0×10^6 cells in 10 mL medium) were incubated with either ethanol or 1 (250 μM or 5 (2.5 mM). On a daily basis, aliquots of cells (˜1.0×10^6 per sample) were taken, washed with PBS (2×1.0 mL), fixed with Reagent A (Fix and Perm Kit, Caltag Laboratories, CA, Cat. No. GAS-003) for 10 min at room temperature, washed with washing buffer (PBS containing 5.0% FBS, 0.1% NaN3), re-suspended in 95% v/v methanol and kept on ice. After 30 min, cells were again washed with washing buffer and incubated with FITC-conjugated anti-p21^WAF1 antibody (Calbiochem, San Diego, Calif., Cat. No. OP64F) at 2.0 μg/mL in Reagent B (100 μL) (Fix and Perm Kit, Caltag Laboratories) for 1.0 h at room temperature in the dark. Finally, cells were re-suspended in washing buffer (500 μL) and analyzed by flow cytometry. Three replicate samples were taken for each condition and 10,000 events were counted for each sample.
Background: Flow cytometry measures light scatter and fluorescence of single cells or particles in a stream.

Another test deals with caspase-3 activity. The test is described as follows: Caspase-3 activity assay in Jurkat cells. The conditions noted are these: for increase of caspase-3 activity: 48 h. An excerpt:
Such results are consistent with those expected by the compounds herein.

The subject of test [1] is sialic acid biosynthesis in Jurkat cells. The test is described as follows: Assay for total sialic acid production (periodate-resorcinol). Particulars: three days. How it is done:
Jurkat cells (5.0×10^6 cells in 10 mL medium) were incubated with 1-5 at various concentrations. […] The cell lysates were analyzed by using an adapted version of the periodate-resorcinol assay (36, 59) with the periodic acid oxidation step performed on ice to allow quantification of total (i.e., free monosaccharide plus glycoconjugate-bound) sialic acid. For each assay, a standard curve was obtained using N-acetylneuraminic acid (Pfanstiehl, Waukegan, Ill.) for calibration.

“Also recorded” adds a separate entry of the source. A value given as a limit tells only on which side of the number the result lay.

`CCCC(=O)OC[C@H]1OC(OC(=O)CCC)[C@@H](NC(C)=O)[C@@H](OC(=O)CCC)[C@@H]1OC(=O)CCC` (stereo partly drawn) [compound 1, 2-Acetylamino-2-deoxy-1,3,4,6-tetra-O-butanoyl-α,β-D-mannopyranoside]: the “long term growth characteristics (day 15)” value with Jurkat cells (Jurkat cells, 0-320 μM, day 15) is “induces both growth arrest and cell death”. Further, the “concentration at which essentially all cells died by day 15” value in the test on Jurkat cells (Jurkat cells, day 15) is not below 80 µM. Further, the range for bioactivity with Jurkat cells (ManNAc and butyrate combined in the same molecule) was 50 to 100 µM. The “morphological changes / differentiation of HeLa cells” value with HeLa cells (3 days, 1 at 250 μM, 5 at 5.0 mM) is reported as “induced differentiation of HeLa cells; also recorded: growth of extended processes”. Moreover, the “fold lower concentration for cellular responses than sodium n-butyrate” value with HeLa cells (HeLa cells) is recorded as approximately 20 ×. The “concentration level required for p21WAF1/Cip1 activation” value in the test with p21WAF1/Cip1 promoter was “micromolar level efficiency”. The “gain in efficiency for 1 over 5, relative to the ~10× of the endogenous p21 assay” value with p21WAF1/Cip1 promoter (luc-p21WAF1/Cip reporter assay) is “even greater”. Besides, the “fold lower concentration for endogenous p21WAF1/Cip1 gene activation than sodium n-butyrate (5)” value in the test on p21WAF1 is on record as approximately 10 ×. In the test with p21WAF1 (one week, 1 at 250 μM, 5 at 2.5 mM), the “endogenous p21WAF1 levels” value is given as “increased p21^WAF1 levels”. The “apoptosis by caspase-3 activity assay” value in the test on caspase-3 activity is listed as “dose dependent apoptosis”. In addition, the figures for the “increase of caspase-3 activity” value with caspase-3 activity (25 μM), in the test on caspase-3 activity (50 μM) and in the test on caspase-3 activity (100 μM) were approximately 4 fold, approximately 8 fold and approximately 14 fold, respectively. The total sialic acid result in test [1] is reported as “large increase in total sialic acid”.

For the origin of these results see patent US9315532B2, “Fatty acid carbohydrate hybrid molecules as therapeutic agents and methods thereof” (The Johns Hopkins University, priority 2005, dated 2016).
